Data taken from US20220211914A1, “HYALURONIC ACID HYDROGELS WITH PROLONGED ANTIMICROBIAL ACTIVITY” (INSTITUT NATIONAL DE LA SANTE ET DE LA RECHERCHE MEDICALE …, priority 2019, published 2022).
Entries after “also recorded” stand apart in the source; their conditions may differ.

How the values were obtained:
Balb/3T3 cells = test: Direct in vitro cytotoxicity test (ISO 10993) with MTT test; settings: 24 h
Method: FIG. 14: Cell viability evaluation by MTT test. Balb/3T3 cells were seeded in 24-well plate and put in contact with HA hydrogel discs loaded or not with PARs for 24 h. HA discs correspond to BDDE-crosslinked HA hydrogel discs without PAR, and HA+PARs correspond to HA hydrogels loaded with different PAR concentrations (mg/mL). (A) Cell images after 24 h of direct in vitro cytotoxicity test. (B) Cell viability measured by MTT test. Dashed line corresponds to 70% viability (cytotoxicity limit).
Direct in vitro cytotoxicity test consists in putting material in contact with the cells for 24 h and performing MTT test to evaluate cell viability. According to ISO 10993, the tested material should cover approximately 1/10 of cell layer surface, which corresponds to ˜5 mm hydrogel discs per well of a 24-well plate.
After 24 h at 37° C., hydrogel discs were removed and MTT test was performed in order to measure cell metabolic activity, which often serves to estimate cell viability. […] The number of viable cells correlates to the colour intensity determined by photometric measurements after dissolving the formazan in alcohol (from ISO 10993).
So the discs, loaded or not with PAR, were sterilized and placed onto ˜80% confluent layer of Balb/3T3 cells. For MTT assay, the cells were incubated for 2 h in 0.2 mg/mL MTT-containing cell culture medium. The medium was then removed and formazan was dissolved in DMSO. Absorbance of resulting solutions was measured at 570 nm using spectrophotometer and images were taken around and under the discs to evaluate cell morphology.

S. aureus = test: Antibacterial activity of PAR-loaded HA films, S. aureus culture, OD at 620 nm after 24 h; type: cell-based; settings: loaded into HA hydrogels at 1 mg/mL; preliminary experiments
Method: FIG. 3: Bacterial growth on PAR pre-loaded and post-loaded HA films. Bacterial growth was evaluated after 24 h by optical density (OD) measurement at 620 nm. PARO corresponds to HA film without PAR. HA 2.5%+BDDE 20% films were added with 1 mg/mL PAR after cross-linking (=post-loaded films).
They assessed post-loading of PAR (adding 1 mg/mL solution of PAR onto cross-linked HA films). […] We also followed PAR release after 24 h from post-loaded films.
After 24 h, OD at 620 nm was measured and bacterial viability on the surfaces was assessed using BacLight Redox Sensor CTC Vitality kit (Molecular Probes) as a fluorescent marker.

[1] = PAR-loaded hydrogel stability in Tris/NaCl buffer; type: physicochemical; settings: 48 h at room temperature or at 37° C.
bacteria = test: Repetitive culture of bacteria with PAR-loaded HA hydrogel discs (fresh bacteria every 24 h); type: cell-based; settings: for duration of antibacterial effect in repetitive culture, additional test: additional test (FIG. 15); for lowest loading concentration showing antibacterial effect: loaded HA hydrogels
Method: Repetitive culture: after 24 h of bacterial culture, the samples were rinsed and seeded with fresh bacteria.
After 24 h of bacterial culture, the samples were rinsed and seeded with fresh bacteria.
Every 24 h of bacterial culture, the samples were seeded with fresh bacteria.

[2] = Loading of PAR-FITC into HA hydrogel discs (CLSM images, fluorescence profiles); type: physicochemical; settings: for distribution in hydrogel discs (fluorescent profiles): discs loaded with 0.5 mg/mL PAR-FITC
Method: FIG. 6: Loading of PAR30-FITC into HA hydrogel discs at different concentrations for 3 h and 24 h. (A) CLSM images (B) Quantification of PAR concentration in the center of the discs.
FIG. 7: Loading of PARs-FITC into HA hydrogel discs. CSLM images of HA hydrogel discs loaded with 0.5 mg/mL of three PARs labelled with FITC (on the left) and fluorescence profiles of the resulting discs (on the right).
To load PAR into the hydrogels, the discs were immersed in PAR solution and incubated at room temperature. For 4 mm discs in 24-well plate, 0.5 mL of PAR solution was used. Then the discs were rinsed with Tris/NaCl buffer two times: one short and one long (at least 1 hour) rinsing.
To visualize PAR loading and diffusion inside the hydrogels, they again used fluorescently-labelled PARs (PAR10-FITC, PAR30-FITC, PAR200-FITC).

[3] = PAR-FITC release from HA hydrogel discs in NaCl 1 M (confocal microscopy, spectrofluorimetry); settings: for release according to the confocal microscopy images: 72 h at 37° C. in NaCl 1M, discs loaded with 0.5 mg/mL PAR-FITC; for released PAR (from percentage remaining, image processing): 72 h in NaCl 1 M, 100% = fluorescence intensity before release; for PAR concentration contained in the discs: disc volume approximately 30 μL, loaded in 0.5 mg·mL^−1
Method: FIGS. 20-24: Release of PARs in NaCl and in culture media. HA discs were incubated with 0.5 mg·mL^−1 of three different FITC-conjugated PAR for 24 h. The discs were rinsed, then incubated for 72 h in NaCl 1 M, MH or DMEM.
More specifically, total amounts of PAR contained in the hydrogels were estimated by incubation of hydrogels loaded with fluorescently labelled PAR in concentrated NaCl to promote PAR release. […] The percentage of PAR remaining in the hydrogel discs after 72 h of incubation was measured with image processing; 100% corresponds to fluorescence intensity before release. […] Then, amounts of PAR-FITC released were quantified by measuring fluorescence intensity of the supernatant by spectrofluorimetry and referring to a calibration curve.

[4] = PAR-FITC release from HA hydrogels in MH and DMEM culture media; settings: for release in DMEM/FBS relative to MH: 24 h of incubation at 37° C.; for release rate in MH: followed during 72 hours at 37° C. in MH
Method: Using FITC-labeled PARs of 10 units, 30 units and 200, the inventors evaluated their release at 37° C. from HA hydrogels in two different media.
They performed discs imaging after 24 h of incubation at 37° C. in MH (Mueller Hinton broth, bacterial culture medium) and in DMEM (Dulbecco's modified Eagle's medium+10% FBS+antibiotics, cell culture medium).
More specifically, PAR release from the hydrogels was followed during 72 hours in microbiological growth medium (MH) or cell culture medium (DMEM). PAR-FITC loaded hydrogels were placed into these media and incubated at 37° C., and PAR release was observed by confocal microscopy (FIG. 22).

[5] = PAR mobility inside HA hydrogels by FRAP; type: physicochemical; settings: discs loaded with 0.5 mg/mL FITC-conjugated PAR for 24 h
Method: FIG. 8: PAR mobility inside HA hydrogels. HA discs were loaded with 0.5 mg/mL of three different FITC-conjugated PARs for 24 h and rinsed. Then, FRAP experiments were conducted. (A) Comparison of the fluorescence recovery of three PARs. (B) Determination of the diffusion coefficients D and percentage of mobile molecules p for three PARs.
Next, the inventors studied PARs mobility inside the hydrogels (FIG. 8) using FRAP (fluorescence recovery after photobleaching) technique. […] Quantitative parameters such as diffusion coefficient were also determined (FIG. 8B).

[6] = hydrogels loaded with 0.05 mg/mL
[7] = 0.1 mg/mL-loaded hydrogels, fresh bacteria added every day
[8] = HA hydrogel discs loaded at 1 mg/mL

Row | Substance | cell viability by MTT test (Balb/3T3 cells; 0.1 mg/mL-loaded hydrogels) | cell viability by MTT test (Balb/3T3 cells; [6]) | antibacterial activity (S. aureus) | PAR-FITC release in Tris/NaCl buffer [1] | duration of antibacterial effect in repetitive culture, additional test (bacteria; 0.1 mg/mL-loaded hydrogels) [days] | duration of antibacterial effect in repetitive culture (bacteria; [7]) [days] | duration of antibacterial effect in repetitive culture (bacteria; HA hydrogel discs loaded at 0.5 mg/mL) [days] | duration of antibacterial effect in repetitive culture (bacteria; [8]) [days] | comparison of prolonged antibacterial effect among PAR lengths (bacteria; PAR10, PAR30, PAR200 loaded HA hydrogels, repetitive culture) | lowest loading concentration showing antibacterial effect (bacteria) [mg/mL] | diffusion into the disc center, 24 h vs. 3 h loading ([2]; PAR30-FITC loading for 3 h vs. 24 h) | distribution in hydrogel discs (fluorescent profiles) [2] | release according to the confocal microscopy images [3] | released PAR (from percentage remaining, image processing) [3] | PAR concentration contained in the discs [3] | release in DMEM/FBS relative to MH [4] | release rate in MH [4] | mobility inside the hydrogels (qualitative, FRAP) [5]
1 | poly-L-arginine [PAR30] | good | good viability | antibacterial activity | no PAR-FITC release | 5 | 4 | 8 | 8 | most prolonged antibacterial effect; also recorded: most efficient | 0.05 | diffused more into the discs center | more homogeneous distribution | ~80% | ~78% | ~6.7 mg/mL | higher than in MH | released more gradually | 
2 | poly-L-arginine [PAR10] | good | good viability | antibacterial activity | no PAR-FITC release | 3 | 2 |  | 8 |  | 0.05 |  | more homogeneous distribution | almost complete | about 97% | about 7.3 mg·mL^−1 |  | faster | most mobile
3 | poly-L-arginine [PAR200] |  |  | antibacterial activity | no PAR-FITC release |  |  |  | 7 |  |  |  |  | ~80% | ~78% | ~3.9 mg/mL | higher than in MH | released more gradually | least mobile
